Source: patent US12358904B2, “Inhibitors of TYK2” (Atomwise Inc., priority 2023, dated 2025)

Tests used:
[1] = Brain exposure pharmacokinetic study in rats; type: in vivo, rat; settings: male Sprague Dawley rats, oral gavage 10 mg/kg, plasma, CSF
Method: The brain exposure of exemplary compounds, e.g., 1, 2, and 4 were evaluated in male Sprague Dawley rats after oral gavage administration at 10 mg/kg. The formulation was 5% DMSO+10% PEG400 in saline. Rats were fasted overnight with food returned 4 hours post-dose. CSF was collected by direct needle puncture into the cisterna magna.
(§1) For both rat and mouse studies, brain tissue was washed with 3 volumes of saline prior to homogenization. Brain tissue was homogenized with 3 volumes (v/w) of phosphate buffered saline. Plasma, brain homogenate, and CSF samples (rat only) were analyzed by LC-MS/MS and the concentration of test compound at each time point was determined by linear regression.
(§2) Pharmacokinetic parameters were calculated from the plasma, brain, and CSF concentrations by non-compartmental modeling using WinNonlin 8.2.

GM-CSF/pSTAT5 = test: GM-CSF induced pSTAT5 assay in CellSensor irf1-bla TF-1 cells; type: cell-based; settings: Homo sapiens, GM-CSF 1 ng/mL, read-out: Cellular selectivity (GM-CSF induced pSTAT5)
Method: The CellSensor irf1-bla TF-1 cell line (LifeTechnologies, K1657) was cultured in RPMI 1640 Medium (Invitrogen 72400-047), 10% Fetal Bovine Serum (Invitrogen, 26400044), 1 mM Sodium pyruvate (Life Technologies, 11360039), 1% MEM NEAA (Life Technologies, 11140-035), 2 ng/ml of human recombinant GM-CSF (Fisher, PHC2015), 1% Penicillin/Streptomycin (Life Technologies, 15140-122) and 5 μg/ml of Blasticidin (ThermoFisher, A1113903).
The cell line was seeded in a T75 flask at 13×10^6 cells/50 mL in starvation medium (Opti-MEM™ I Reduced Serum Medium, no phenol red (Life Technologies, 11058-021), 1 mM Na pyruvate (Life Technologies, 11360039), 1% MEM NEAA (Life Technologies, 11140-035), and 1% Penicillin/Streptomycin (Life Technologies, 15140-122)) for 16 hours at 37° C. under 5% CO2 the day before the assay.
For the assay, CellSensor irf1-bla TF-1 cells were seeded at 30 000 cells/32 μL (starvation medium)/well in a 384-well plate.
Compounds were added on the cells in 4 μL (starvation medium)/well at 10× the final concentration. They were incubated for 30 minutes at 37° C.
Human recombinant carrier-free GM-CSF (ThermoFisher, ref PHC2015) was added to the wells in 4 μL (starvation medium)/well at 10×. The final concentration was 1 ng/mL. Control wells without GM-CSF treatment were added. Plates were incubated for 5 hours at 37° C.
6× LiveBlazer-FRET substrate (Invitrogen, K1085) was added to the wells at 8 μL/well. The substrate was prepared shortly before use by mixing 6 μL of solution A and 60 μL of solution B to 934 μL of solution C. Plates were incubated for 2.5 hours at room temperature in the dark. The plates were read on an Envision (Perkin Elmer) with an excitation at a wavelength of 409 nm and two wavelengths for the emission 520 nm and 450 nm. The ratio between the […] emission was used to calculate the IC50s.
The IC50 for the inhibition of pSTAT5 was calculated with the Xlfit software using the 4 Parameter Logistic Model or Sigmoidal Dose-Response Model (model 205).

IL-6/pSTAT3 = test: IL-6 induced pSTAT3 assay in TF-1 cells; type: cell-based; settings: Homo sapiens, read-out: Cellular selectivity (IL-6/pSTAT3)
Method: The following example describes the IL-6 induced pSTAT3 assay used to determine the cellular selectivity (IL-6/pSTAT3) of the TYK2 inhibitors.
TF-1 (ATCC®, CRL-2003™) cells were cultured in RPMI 1640 Medium, with GlutaMAX™ Supplement, HEPES for Cell Culture (Life Technologies, 72400047), 10% Fetal Bovine Serum (Life Technologies, 26400044), 2 ng/mL human recombinant GM-CSF (Life Technologies, PHC2013), 1 mM Sodium pyruvate (Life Technologies, 11360039), 1% MEM NEAA (Life Technologies, 11140-035), 1% Penicillin/Streptomycin (Life Technologies, 15140-122).
TF-1 (70×10^6) cells were starved overnight in T01 50 flasks (Opti-MEM™ I Reduced Serum Medium, no phenol red (Life Technologies, 11058-021), 1 mM Na pyruvate (Life Technologies, 11360039), 1% MEM NEAA (Life Technologies, 11140-035), and 1% Penicillin/Streptomycin (Life Technologies, 15140-122)) then seeded into 96-well TPP plates (150 000 cell/well) and incubated with test compounds (Final Concentration [nM] 10000-0.05) for 30 minutes at 37° C. […] Stimulation was terminated by addition of lysis buffer (MSD K150SVD) and pSTAT3 detection was measured with Phospho-STAT3 (Tyr705) Kit MSD K150SVD)) according to manufacturer's instruction. Briefly, cell lysates were added to pre-blocked plates, sealed, and shake for 1 hour at room temperature. Plates were then washed and incubated with detection antibody for 1 hour at room temperature. After washing, Read Buffer was added, and plates were read on MSD instrument (Model 1300 MSD Quickplex SQ 120).

IL-12/pSTAT4 = test: IL-12 induced pSTAT4 assay in NK-92 cells; type: cell-based; settings: Homo sapiens, NK92, IL-12 stimulation, read-out: Cellular potency (IL-12/pSTAT4)
In short: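 Overnight-starved NK-92 cells (20K/well) pre-incubated with compounds (1000 to 0.05 nM final) 30 min at 37 °C, then stimulated with IL-12 (10 ng/ml) for 30 min at 37 °C. Lysates assayed for pSTAT4 (Tyr693) by MSD electrochemiluminescence.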

TYK2-JH2 = molecular target: T1, TYK2-JH2 (Homo sapiens, UniProt P29597); test: TYK2-JH2 HTRF binding assay (ligand efficiency); settings: calculated from IC50 of the TYK-JH2 binding assay (Equation 1)
T1 construct: TYK JH2 enzyme mix (ChemPartnec CP20210818A-BV); purchased ChemPartner CP20210818A-BV
T1 sequence (P29597 589-875 limits assumed): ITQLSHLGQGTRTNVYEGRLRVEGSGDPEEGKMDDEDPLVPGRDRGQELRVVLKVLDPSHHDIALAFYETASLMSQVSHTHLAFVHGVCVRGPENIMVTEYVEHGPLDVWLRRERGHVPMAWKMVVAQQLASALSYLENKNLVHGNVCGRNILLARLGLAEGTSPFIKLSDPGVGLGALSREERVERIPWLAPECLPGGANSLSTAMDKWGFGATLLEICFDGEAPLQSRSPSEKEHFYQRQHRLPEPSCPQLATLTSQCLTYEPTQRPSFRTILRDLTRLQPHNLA
In short: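 His-tagged TYK2 JH2 (0.5 nM) preincubated 10 min at RT with compound (0.1–0.000005 μM) in 20 mM HEPES pH 7.5, 10 mM MgCl2, 0.01% Triton X-100, 1 mM DTT; then 35 nM tracer plus anti-6HIS Tb cryptate, 60 min RT. TR-FRET read (Ex340/Em495/520); IC50 converted to ligand efficiency.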

[2] = Brain exposure pharmacokinetic study in mice; type: in vivo, mouse; settings: male C57BL/6 mice, oral gavage 5 mg/kg, plasma
Method: The brain exposure of 18 was evaluated in male C57BL/6 mice after oral gavage administration at 5 mg/kg. The formulation was 10% DMSO+40% PEG400 in saline. Mice were provided free access to food and water without fasting. Terminal sample collection of plasma and brain tissue were collected at […], 0.25, 0.5, 1, 2, and 4 hours post-dose with n=3 at each timepoint.
as §1, §2

## C[C@@H](c1ccc(Nc2cc(Nc3ncccc3S(C)(=O)=O)ncn2)nc1)N1CC2(COC2)C1 [Compound 1, (S)—N^4-(5-(1-(2-oxa-6-azaspiro[3.3]heptan-6-yl)ethyl)73yridine-2-yl)-N^6-(3-(methylsulfonyl)73yridine-2-yl)pyrimidine-4,6-diamine]
[1]
  Brain Kpu, u: †† (†† 0.1-0.2u)
GM-CSF/pSTAT5
  IC50: 4 to 10 µM
IL-6/pSTAT3
  IC50: > 10 µM
IL-12/pSTAT4
  IC50: < 0.1 µM
TYK2-JH2
  Ligand Efficiency: ††† (†††: >0.39)

## C[C@@H](c1ccc(Nc2cc(Nc3ncc(F)cc3S(C)(=O)=O)ncn2)nc1)N1CC2(COC2)C1 [Compound 2, (S)—N^4-(5-(1-(2-oxa-6-azaspiro[3.3]heptan-6-yl)ethyl)75yridine-2-yl)-N^6-(5-fluoro-3-(methylsulfonyl)75yridine-2-yl)pyrimidine-4,6-diamine]
[1]
  Brain Kpu, u: † († <0.1u)
GM-CSF/pSTAT5
  IC50: > 10 µM
IL-6/pSTAT3
  IC50: > 10 µM
IL-12/pSTAT4
  IC50: < 0.1 µM
TYK2-JH2
  Ligand Efficiency: ††† (†††: >0.39)

## C[C@@H](c1ccc(Nc2cc(Nc3ncccc3S(C)(=O)=O)ncn2)nc1)N(C)C [Compound 4, (S)—N^4-(5-(1-(dimethylamino)ethyl)79yridine-2-yl)-N^6-(3-(methylsulfonyl) 79yridine-2-yl) pyrimidine-4,6-diamine]
[1]
  Brain Kpu, u: ††† (††† >0.2u)
GM-CSF/pSTAT5
  IC50: > 10 µM
IL-6/pSTAT3
  IC50: 4 to 10 µM
IL-12/pSTAT4
  IC50: < 0.1 µM
TYK2-JH2
  Ligand Efficiency: ††† (†††: >0.39)

## Cc1cccc(Nc2cc(Nc3ncccc3S(C)(=O)=O)ncn2)n1 [Compound 18, N^4-(6-methylpyridin-2-yl)-N^6-(3-(methylsulfonyl)99yridine-2-yl) pyrimidine-4,6-diamine]
GM-CSF/pSTAT5
  IC50: > 10 µM
[2]
  Brain Kpu, u: ††† (††† >0.2u)
IL-6/pSTAT3
  IC50: < 4 µM
IL-12/pSTAT4
  IC50: < 0.1 µM
TYK2-JH2
  Ligand Efficiency: ††† (†††: >0.39)
